Legend:
[1] = bexarotene-treated patients, two SPIRIT trials; cited from earlier work
[2] = test system: MDA-PR cells; test: Growth and resensitization of paclitaxel-resistant MDA-MB-231 cells; format: cell-based, human; settings: 30 nM paclitaxel (3 days on, 7 days off) in absence or presence of 1 μM Targretin (10 days on), 3 months
Protocol: (§1) The human breast cancer cell line MDA-MB-231 was obtained from the American Type Culture Collection (Manassas, Va., USA), and MDA-MB-231 cells were routinely cultured in RPMI-1640 supplemented with 10% fetal bovine serum and 2 mM glutamine in 5% CO2. Bexarotene was synthesized at Ligand Pharmaceuticals Inc. (San Diego, Calif., USA), and paclitaxel was purchased from Sigma Chemicals (St. Louis, Mo., USA). The protocol for establishment of paclitaxel-resistant MDA-MB-231 cells and resensitization to paclitaxel by bexarotene treatment was described previously (5). Briefly, MDA-MB-231 cells were exposed to regimens on a 10-day cycle: a 3-day treatment with 30 nM paclitaxel followed by a 7-day exposure to control medium. […] These MDA-PR cells were then treated with the combination of 30 nM paclitaxel (3 days on and 7 days off) in the absence or presence of 1 μM Targretin (10 days on) in a new 10-day cycle for 3 months.

[3] = test system: non small cell lung cancer; test: Kaplan-Meier survival analysis of bexarotene-treated patients in the SPIRIT I and II phase III trials; format: in vivo, human (patients); settings: bexarotene plus chemotherapy, control arm 284 days
Protocol: Bexarotene (also called Targretin, LGD1069) is a selective modulator of retinoid X receptors (RXRs) approved for treating refractory advanced-stage cutaneous T-cell lymphoma (1, 2). […] Consequently, two large phase III trials (SPIRIT I and SPIRIT II) were conducted to evaluate the efficacy and safety of standard chemotherapy agents with or without bexarotene as a first-line therapy in treating advanced non small cell lung cancer. […] A known side-effect of retinoid therapy is the elevation of serum lipids, and the majority of the bexarotene treated patients in the two SPIRIT trials developed hypertriglyceridemia, as expected. […] This intriguing correlation between survival and triglyceride level induced by bexarotene observed in both SPIRIT trials is illustrated in FIG. 1A. […] These findings prompted the search for biomarkers which can predict bexarotene sensitivity and identify a subgroup of non small cell lung cancer patients whose survival could be prolonged by bexarotene treatment.
FIG. 1. Sub-population analysis and study design. […] Kaplan-Meier survival estimates in patients gave median survivals of 170 days, 263 days, and 371 days for these three groups, respectively. […] B. Overview of genome-wide association study design. In Stage I discovery phase, 150 samples (74 cases and 76 controls) were genotyped using the Affymetrix GeneChip 500K Mapping Array Set (Nsp array+Sty array) containing 500,000 SNPs following the Affymetrix standard protocol. 255 SNPs were then selected for stage II study. In Stage II, 400 samples were individually genotyped using the 255 Sequenom iPLEX SNP assays, including 147 samples (minus one case and two controls) used in the Stage I for the Verification group and 253 new samples for the Replication group. In the Replication group, 129 samples were included from the patients with middle level of triglyceride percentile (HTG Mid).

[4] = test system: LCP1; test: RNA microarray of LCP1 expression in paclitaxel-resistant MDA-MB-231 (MDA-PR) cells; format: cell-based, human; settings: for effect on LCP1 expression (in words): paclitaxel alone, or bexarotene together with paclitaxel
Protocol: as §1

[5] = test system: non small cell lung cancer; settings: addition of bexarotene to chemotherapy, first-line, advanced non small cell lung cancer, both phase III trials; cited from earlier work

C=C(c1ccc(C(=O)O)cc1)c1cc2c(cc1C)C(C)(C)CCC2(C)C [bexarotene]
patients who developed NCI grade 3 or higher hypertriglyceridemia [1]: 30-40%
effect on growth / paclitaxel sensitivity of MDA-PR cells [2]: re-sensitized to paclitaxel
median survival (Kaplan-Meier estimate) ([3]; 'HTG Hi' group: 67% to maximum triglyceride): 371 days
median survival (Kaplan-Meier estimate) ([3]; 'HTG Lo' group: triglyceride up to 33% of maximum level): 170 days
median survival (Kaplan-Meier estimate) ([3]; 'HTG Mid' group: middle third (33% to 67%)): 263 days
LCP1 expression up-regulation compared to MDA-PR cells ([4]; 30 nM paclitaxel/1 μM bexarotene for 3 months, p-value=6.86×10^−6): 3.8 fold
effect on LCP1 expression (in words) [4]: significantly up-regulated
overall survival in the intent-to-treat population [5]: did not improve overall survival

CC(=O)O[C@H]1C(=O)[C@@]2(C)[C@H]([C@H](OC(=O)c3ccccc3)[C@]3(O)C[C@H](OC(=O)[C@H](O)[C@@H](NC(=O)c4ccccc4)c4ccccc4)C(C)=C1C3(C)C)[C@]1(OC(C)=O)CO[C@@H]1C[C@@H]2O [paclitaxel]
effect on growth / paclitaxel sensitivity of MDA-PR cells [2]: no effect
effect on LCP1 expression (in words) [4]: no effect

— patent US10202652B2, “Methods and compositions of predicting activity of retinoid X receptor modulator” (Denovo Biopharma (Hangzhou) Ltd. Co., priority 2011, dated 2019)
